According to patent US10718756B2, “Mitochondrial apoptotic sensor” (The Regents of the University of California, priority 2016, dated 2020):

Key:
[1] = system: isolated mitochondria (HeLa and RS4;11 cells); assay: TMRE fluorescence measurement of inner membrane potential (ΔΨm) of tethered isolated mitochondria; parameters: species or system mammalian; conditions: TMRE signal
Description: Before isolation, the confluent cells were stained with 100 nM MITOTRACKER™ Green FM and 40 nM TMRE for 1 hour. Subsequent isolation steps used solutions with 40 nM TMRE because TMRE is a potentiometric dye, which fluctuates in and out of the mitochondria depending on their inner membrane potential. 40 nM was determined as the optimal concentration. Using an inverted microscope with two LED excitation sources (490 nm & 565 nm the red and green fluorescence signals from the MITOTRACKER™ and TMRE were visualized with 20× objective at 200 μm×300 μm, exposure time one second. To process and analyze the images, ImageJ software was used. For the entire field of view analysis, fluorescence intensity was measured from the field of view. In contrast, for single mitochondrion analysis, regions of interest enclosing the mitochondria were defined and three more identical copies of that region of interest were used to define the background noise. Fluorescence signal of the mitochondria was assigned as the measured signal subtracting the noise average. […] The electrical measurement of Ids versus time and the fluorescence time-lapse measurement of TMRE signal were collected. […] In contrast, fluorescence images were taken once every 5 s for the experiments with CCCP or every 2 min for the experiments with BIM-BH3. […]

[2] = system: isolated mitochondria (HeLa and RS4;11 cells); assay: Graphene sensor measurement of extra-mitochondrial buffer pH of tethered isolated mitochondria; parameters: species or system mammalian
Description: Here, is presented an electronic method to detect extra-mitochondrial pH of isolated mitochondria, based on tethering the mitochondria to one-atom thin graphene. The mitochondria are tethered via graphene bound antibodies which recognize the mitochondrial outer membrane protein, TOM20. Graphene is an excellent conductor and changes in the pH surrounding the mitochondria can change the graphene conductance and be detected electrically. Being optically transparent, the graphene layer also permits optical interrogation of the mitochondria concurrent with analysis of ionic changes.
An isolation buffer containing 225 mM mannitol, 75 mM sucrose, 0.5 mM EGTA, 20 mM HEPES, 0.5% (w/v) BSA, 1× protease inhibitor, pH 7.2 with 1 M KOH was used. […]
After mitochondria isolation, about 6 μg of mitochondrial protein of isolated mitochondria was loaded to a graphene device and incubated for 15 min at room temperature. […] The electrical measurement of Ids versus time and the fluorescence time-lapse measurement of TMRE signal were collected. […] In contrast, fluorescence images were taken once every 5 s for the experiments with CCCP or every 2 min for the experiments with BIM-BH3. […]
Control experiments were carried out in a similar manner with the only difference being the lack of isolated mitochondria. Software was used to analyze all electrical data and the fluorescence data that were exported from ImageJ software. […]

[3] = exogenous agent, after BIM-BH3 induced MOMP

| Compound | ΔΨm ([1]; agent added to mitochondria on graphene device in KCl buffer) | buffer pH (pHbuffer) ([2]; agent added to mitochondria on graphene device in KCl buffer with 5 mM succinate, 2 μM rotenone) | ΔΨm after BIM-BH3 induced MOMP [1, 3] | buffer acidification after BIM-BH3 induced MOMP [2, 3] |
| --- | --- | --- | --- | --- |
| N#CC(C#N)=NNc1cccc(Cl)c1 [CCCP] | decrease | increase | – | – |
| cytochrome c [cytc] | – | – | rescues | blocks buffer acidification |
